Columns and labels:
[1] = system: Mediterranean fruit flies; assay: Field cage bioassay: attraction of male Mediterranean fruit flies to Jackson traps baited with PVC plugs; format: in vivo, Ceratitis capitata; conditions: grand mean capture ± 2 pooled standard deviations; ~100 mg PVC plug with ~40% compound in Jackson trap; screened field cage, 24-hour period; 150 male flies released per cage; same letter = not significantly different (P >0.05)
Description: Assessment of Biological Properties: Compounds were assessed for the ability to attract Mediterranean fruit flies in an enclosed field cage.
Formulation of compounds on PVC disks: All test compounds were >95% pure by GC-MS, except for (1R*,2R*,5R*)-sec-butyl 5-methoxy-2-methylcyclohexanecarboxylate which was tested as a mixture of diastereomers due to the use of (±)-2-butanol in the formation of the ester, and were formulated as ˜100 mg polymeric plugs containing ˜40% by mass of a compound of Formula (I). A typical protocol dissolved polyvinyl chloride (PVC) (864 mg), dibutyl phthalate (DBP) (432 mg), dioctyl phthalate (DOP) (432 mg), (1R*,2R*,5R*)-ethyl 5-methoxy-2-methylcyclohexanecarboxylate (1) (1.152 g) in THF (8.64 g). The mixture was then pipetted (˜400 mg) into respective porcelain wells. The THF was allowed to evaporate by warming the porcelain plate at 40° C. for 15 minutes, and then standing at room temperature until a constant weigh was achieved, to afford ˜26 PVC-attractant disks with a mass of 104.0±3.4 mg, (x±s).
Bioassays: Compounds were evaluated in screened field cages (3×3×2.5 meters) over a 24-hour period. Each field cage housed a single carousel, centered on the ceiling about 2 meters above the floor of the enclosure, which rotated (˜1 revolution/min) 8 equally-spaced Jackson traps. A polymeric plug containing a test compound was placed in a small basket in each Jackson trap with a sticky insert to record the number of fly catches. Test compounds (6) were screened together with two “standard” attractants, TML (FarmaTech, USA) and (±)-CER-B1 (prepared according to Khrimian, A., et al., Tetrahedron, 59: 5475 (2003)). A typical experiment (1) used 3 cages and began between 9-10 am each day, (2) TML and (±)-CER-B were arranged at two directly opposing poles of the carousel with 6 test compounds (3 on each side of TML and (±)-CER-B1) randomly placed relative to the standards, (3) 6 randomly-selected patterns were tested over a 2-day period, with the same sequence of patterns repeated three times (days 1 & 2, days 3 & 4, and days 5 & 6) for a total of 3 replicates, (4) each 2-day period (days 1 & 2, days 3 & 4, and days 5 & 6) used a different cohort of 7-8 day old laboratory reared male Mediterranean fruit flies (n=3), and (5) 150 male Mediterranean fruit flies were released each morning per 24-h cage bioassay for a total of 900 flies per cohort and 2700 flies during the entire testing period. A fresh lure was used for each cage experiment (n=18). Mean fly catch numbers are depicted in the table below.
For each cohort, a single-factor ANOVAs was applied to test the null hypothesis that the mean capture of a particular lure across both days (six trials total, three each day) could be used to estimate attraction. […] An additional single-factor ANOVAs was applied to test the null hypothesis that the grand mean capture of a particular lure could be used to estimate attraction, independent of the cohort. Again, none of the lure-respective ANOVAs were significant, a result that provided evidence to support congruence in the biological response across all cages, days, and cohorts. Also depicted in the table below, the grand mean capture ±2 pooled standard deviations (2 spooled) (Skoog, D. and Leary, J., Principles of Instrumental Analysis, John Wiley & Sons, Eds: New York, 1992). In general, the most attractive compounds in the above bioassay captured a similar (statistically equivalent) or greater number of flies relative to trimedlure.

[2] = system: male medfly; conditions: classification in the literature; cited from earlier work
[3] = DeMilo 1992; cited from earlier work

Compound | Mean Catch per replicate [1] | attractant strength for male medfly [2] | stability in formulations and the environment [3]
CO[C@@H]1CC[C@@H](C)[C@H](C(=O)OCC(F)(F)F)C1 (relative stereo) [(1R*,2R*,5R*)-2,2,2-trifluoroethyl 5-methoxy-2-methylcyclohexanecarboxylate] | 94.0 ± 11.5 days | – | –
CCCOC(=O)[C@@H]1C[C@H](OC)CC[C@H]1C (relative stereo) [(1R*,2R*,5R*)-propyl 5-methoxy-2-methylcyclohexanecarboxylate] | 38.0 ± 9.7b | – | –
CCOC(=O)[C@@H]1C[C@H](OC)CC[C@H]1C (relative stereo) [(1R*,2R*,5R*)-ethyl 5-methoxy-2-methylcyclohexanecarboxylate] | 91.0 ± 9.8 days | – | –
CCC(C)OC(=O)[C@@H]1C[C@H](OC)CC[C@H]1C (relative stereo) [(1R*,2R*,5R*)-sec-butyl 5-methoxy-2-methylcyclohexanecarboxylate] | 13.7 ± 3.0c | – | –
CO[C@@H]1CC[C@@H](C)[C@H](C(=O)OC(C)C)C1 (relative stereo) [(1R*,2R*,5R*)-isopropyl 5-methoxy-2-methylcyclohexanecarboxylate] | 64.7 ± 10.2a | – | –
tert-butyl 4- (and 5)-chloro-2-methylcyclohexanecarboxylate [Trimedlure, reference compound] | 82.7 ± 11.3 days | weak attractant | –
ethyl esters of 4 (and 5)-iodo-2-methylcyclohexane-1-carboxylate [CER] | – | – | unstable
CO[C@@H]1CC[C@@H](C)[C@H](C(=O)OC(C)(C)C)C1 (relative stereo) [(1R*,2R*,5R*)-tert-butyl 5-methoxy-2-methylcyclohexanecarboxylate] | 9.0 ± 2.8c | – | –
CCOC(=O)[C@@H]1C[C@H](I)CC[C@H]1C (relative stereo) [Ceralure-B1, (1R*,2R*,5R*)-ethyl 5-iodo-2-methylcyclohexanecarboxylate, reference compound] | 94.0 ± 10.7 days | – | –

— patent publication US10343974B1, “Cyclohexanol ethers as mediterranean fruit fly attractants” (The United States of America, as Represented by the …, priority 2018, dated 2019)
